Test results from patent US20040053234A1, “Polynucletides that control delta-6 desaturase genes and methods for identifying compounds for modulating delta-6 desaturase” (priority 2000, published 2004).

Tested on: delta-6-desaturase
Test: Inhibition of delta-6-desaturase in rat liver microsomes incubated with [1-14C]-dihomogammalinolenic acid
Assay type: biochemical
Conditions: for % of inhibition: substrate [1-14C]-dihomogammalinolenic acid
Experimental: Wistar rats under light halothane (15% in mineral oil) anesthesia were sacrificed by exsanguination during periods of high enzyme activity. Livers are immediately rinsed with cold 0.9% NaCl solution, weighed and minced with scissors. All procedures are performed at 4° C. unless specified otherwise. Livers are homogenized in a solution (1:3 w/v) containing 0.25 M sucrose, 62 mM potassium phosphate buffer (pH 7.0), 0.15 M KCl, 1.5 mM N-acetylcysteine, 5 mM MgCl2, and 0.1 mM EDTA using 4 strokes of a Potter-Elvehjem tissue homogenizer. The homogenate is centrifuged at 10,400×g for 20 min to eliminate mitochondria and cellular debris. The supernatant is filtered through a 3-layer cheesecloth and centrifuged at 105,000×g for 60 min. The microsomal pellet is gently resuspended in the same homogenization solution with a small glass/teflon homogenizer and stored at −70° C. The absence of mitochondrial contamination is enzymatically assessed. The protein concentration is measured using bovine serum albumin as the standard.
Reactions are started by adding 2 mg of microsomal protein to pre-incubated tubes containing 0.20 μCi of the substrate fatty acid (DGLA) at a final concentration of 33.3 μM in 1.5 ml of homogenization solution, containing NaF (42 mM), niacinamide (0.33 mM), ATP (1.57 mM), NADH (1.0 mM), coenzyme A (0.09 mM) and a range of concentrations of the enzyme modulators. N-propyl gallate was added to the incubation medium to a final concentration of 0.02-0.32 mM. The tubes are vortexed vigorously and after 15 min incubation in a shaking water bath (37° C.), the reactions are stopped and fatty acids are analyzed as described in herein. Alternatively, fatty acid methyl esters are analyzed by capillary column gas chromatography (GC).

CCCOC(=O)c1cc(O)c(O)c(O)c1 [n-propyl gallate, Propyl ester of 3,4,5-trihydroxybenzoic acid]
% of inhibition (inhibitor 0.02 mM): 62.9%
% of inhibition (inhibitor 0.04 mM): 74.9%
% of inhibition (inhibitor 0.08 mM): 86.4%
% of inhibition (inhibitor 0.16 mM): 88.7%
% of inhibition (inhibitor 0.32 mM): 100.0%
Inhibitor concentration at which a plateau of inhibition was reached (rat liver microsomes, Table 20): 0.08 to 0.32 mM
